What was measured:
rat aortic strips = assay: Spasmolytic activity in rat aortic strips; format: cell-based; conditions: aortic strips contracted with norepinephrine (5×10^-8 M); specific activity, α-hANP[1-28] = 100; mean ± standard error, number of experiments in parentheses
Procedure: (1) Spasmolytic activity in rat aortic strips. Male Sprague-Dawley rats weighing 250-280 g were used. After the rats were decapitated, their thoracic aorta were obtained and aortic helical strips were prepared. Krebs solution was used in this assay system. The aortic strips were suspended in a 20 ml organ-bath which was aerated with 5% carbon dioxide and 95% oxygen and kept at 37° ±0.5° C. The aortic tension was recorded isotonically. The isotonic recording system, consisted of a transducer and amplifier (ME commercial ME4012) and a recorder (Sanei 8K21). A resting tension of 0.5 g was loaded on the aortic strips. The prepared strips were left under the described conditions for 1 hour to obtain the stable tension. The aortic preparation contracted with norepinephrine (5×10^-8 M) was exposed to ANP to examine its relaxant activity. The dose response curve was obtained for the α-hANP(1-28) and the ANP fragment in the same preparation. The 50% effective dose (ED50) for each preparation was obtained and the ratio was used as the specific activity.

chick rectum = assay: Spasmolytic activity in chick rectum; format: cell-based; conditions: rectum contracted with carbachol (2×10^-7 M); specific activity, α-hANP[1-28] = 100; mean ± standard error, number of experiments in parentheses
Procedure: (2) Spasmolytic activity in chick rectum. Male, 2- to 3-week-old chicks weighing 155-175 g were used. After the chicks were anesthetized with pentobarbital (6 mg/kg, ip), their rectums were excised. Krebs solution was used. The rectums were suspended in 20 ml organ-bath aerated with 5% carbon dioxide and 95% oxygen and kept at 37° ±0.5° C. Contractile tension of the rectum was determined isotonically. The isotonic recording system used was the same as that used in testing the rat aortic preparations. The rectal preparations were stabilized by keeping them under 0.5 g of tension conditions for 1 hour. The rectal preparations contracted with carbachol (2×10^-7 M),were exposed to ANP to examine its relaxing effect. As with the rat aortic preparations, ED50 for the standard α-haNP(1-28) and for the ANP fragment were determined, and the specific activity were calculated.

## (Nle^12)α-hANP(1-28) [[Nle^12]-α-hANP[1-28]]
Rat aortic strips
  Spasmolytic Activity in Rat Aorta (ratio of ED50 to the standard hANP (1-28)): 80.5 ± 12.2
Chick rectum
  Spasmolytic Activity in Chick Rectum (ratio of ED50 to the standard hANP (1-28)): 70.3 ± 10.9

## CC[C@H](C)[C@@H]1NC(=O)[C@H](CCCNC(=N)N)NC(=O)[C@H](CC(=O)O)NC(=O)[C@H](CCSC)NC(=O)[C@H](CCCNC(=N)N)NC(=O)CNC(=O)CNC(=O)[C@H](Cc2ccccc2)NC(=O)[C@@H](NC(=O)[C@H](CO)NC(=O)[C@H](CO)NC(=O)[C@H](CCCNC(=N)N)NC(=O)[C@H](CCCNC(=N)N)NC(=O)[C@H](CC(C)C)NC(=O)[C@@H](N)CO)CSSC[C@@H](C(=O)N[C@@H](CC(N)=O)C(=O)N[C@@H](CO)C(=O)N[C@@H](Cc2ccccc2)C(=O)N[C@@H](CCCNC(=N)N)C(=O)N[C@@H](Cc2ccc(O)cc2)C(=O)O)NC(=O)CNC(=O)[C@H](CC(C)C)NC(=O)CNC(=O)[C@H](CO)NC(=O)[C@H](CCC(N)=O)NC(=O)[C@H](C)NC(=O)CNC1=O [α-hANP[1-28], α-human atrial natriuretic peptide]
Rat aortic strips
  Spasmolytic Activity in Rat Aorta (ratio of ED50 to the standard hANP (1-28)): 100
Chick rectum
  Spasmolytic Activity in Chick Rectum (ratio of ED50 to the standard hANP (1-28)): 100
